{
  "source": "paper doi:10.1101/2024.08.13.607785v1",
  "about": "(biorxiv, 2024)",
  "assay_in_all_cases": "biochemical",
  "key": {"[1]": {"target": "Cyclin-dependent kinase 10 ; CDK10 ; Q15131 (Homo sapiens, UniProt Q15131)", "sequence (Q15131 whole entry, one chain of several)": "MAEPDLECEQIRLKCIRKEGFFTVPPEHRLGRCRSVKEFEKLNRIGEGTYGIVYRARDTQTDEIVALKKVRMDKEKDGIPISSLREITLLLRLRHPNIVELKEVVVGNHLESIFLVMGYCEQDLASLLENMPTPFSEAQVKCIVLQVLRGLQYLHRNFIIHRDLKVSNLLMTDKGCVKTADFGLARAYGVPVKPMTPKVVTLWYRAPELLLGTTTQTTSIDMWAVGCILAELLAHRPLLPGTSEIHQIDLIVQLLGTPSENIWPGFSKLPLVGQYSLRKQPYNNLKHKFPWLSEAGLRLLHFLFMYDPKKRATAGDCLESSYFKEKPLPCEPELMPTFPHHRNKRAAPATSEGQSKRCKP", "design": "species or system mixed lysate of K562, MV4-11, THP-1, NCI-H1155"}, "[2]": {"target": "High affinity nerve growth factor receptor ; NTRK1 ; P04629 (Homo sapiens, UniProt P04629)", "sequence (P04629 whole entry)": "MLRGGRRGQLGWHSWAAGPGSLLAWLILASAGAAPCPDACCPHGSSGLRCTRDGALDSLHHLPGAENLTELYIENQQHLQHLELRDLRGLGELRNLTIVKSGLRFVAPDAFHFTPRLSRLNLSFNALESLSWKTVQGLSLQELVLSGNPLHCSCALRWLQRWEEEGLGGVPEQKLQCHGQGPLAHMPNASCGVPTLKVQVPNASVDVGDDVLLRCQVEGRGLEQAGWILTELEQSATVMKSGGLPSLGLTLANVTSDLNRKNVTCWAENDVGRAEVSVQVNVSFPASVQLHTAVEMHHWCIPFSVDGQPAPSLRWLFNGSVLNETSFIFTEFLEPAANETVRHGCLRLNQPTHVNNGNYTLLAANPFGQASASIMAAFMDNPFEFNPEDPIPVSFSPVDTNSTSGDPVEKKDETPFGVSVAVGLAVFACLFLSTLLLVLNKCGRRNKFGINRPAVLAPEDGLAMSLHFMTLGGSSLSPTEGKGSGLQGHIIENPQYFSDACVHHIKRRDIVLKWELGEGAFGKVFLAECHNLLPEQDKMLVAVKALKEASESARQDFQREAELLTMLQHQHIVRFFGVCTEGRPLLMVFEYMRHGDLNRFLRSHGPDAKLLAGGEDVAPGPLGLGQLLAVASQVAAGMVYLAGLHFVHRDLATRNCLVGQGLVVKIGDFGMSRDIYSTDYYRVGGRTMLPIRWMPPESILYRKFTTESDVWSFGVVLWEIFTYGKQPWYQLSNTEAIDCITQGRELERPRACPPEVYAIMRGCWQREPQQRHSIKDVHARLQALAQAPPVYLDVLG", "design": "species or system mixed lysate of K562, MV4-11, THP-1, NCI-H1155"}, "[3]": {"target": "Cyclin-dependent kinase 16 ; CDK16 ; Q00536 (Homo sapiens, UniProt Q00536)", "design": "species or system mixed lysate of K562, MV4-11, THP-1, NCI-H1155"}, "[4]": {"target": "Cyclin-dependent kinase 12 ; CDK12 ; Q9NYV4 (Homo sapiens, UniProt Q9NYV4)", "design": "species or system mixed lysate of K562, MV4-11, THP-1, NCI-H1155"}, "[5]": {"target": "T1, Cyclin-dependent kinase 19 ; CDK19 ; Q9BWU1 (Homo sapiens, UniProt Q9BWU1)", "T1 sequence (Q9BWU1 whole entry, one chain of several)": "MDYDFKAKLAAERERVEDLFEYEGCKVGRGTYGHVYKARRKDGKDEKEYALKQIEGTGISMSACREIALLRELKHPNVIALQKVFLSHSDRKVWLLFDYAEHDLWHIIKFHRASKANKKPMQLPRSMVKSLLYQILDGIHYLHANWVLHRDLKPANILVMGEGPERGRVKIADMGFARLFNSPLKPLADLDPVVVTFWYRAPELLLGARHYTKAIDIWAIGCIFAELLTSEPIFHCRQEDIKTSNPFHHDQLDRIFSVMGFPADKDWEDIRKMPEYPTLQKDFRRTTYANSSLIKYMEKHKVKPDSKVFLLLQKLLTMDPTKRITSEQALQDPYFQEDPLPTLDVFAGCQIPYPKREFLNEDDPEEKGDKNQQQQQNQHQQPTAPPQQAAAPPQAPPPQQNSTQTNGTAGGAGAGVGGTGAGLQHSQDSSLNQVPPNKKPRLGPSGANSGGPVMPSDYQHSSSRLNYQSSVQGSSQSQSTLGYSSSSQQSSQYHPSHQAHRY", "design": "species or system mixed lysate of K562, MV4-11, THP-1, NCI-H1155"}, "[6]": {"target": "Cyclin-dependent kinase 9 ; CDK9 ; P50750 (Homo sapiens, UniProt P50750)", "design": "species or system mixed lysate of K562, MV4-11, THP-1, NCI-H1155"}, "[7]": {"target": "T2, Interleukin-1 receptor-associated kinase 3 ; IRAK3 ; Q9Y616 (Homo sapiens, UniProt Q9Y616)", "T2 sequence (Q9Y616 1-596)": "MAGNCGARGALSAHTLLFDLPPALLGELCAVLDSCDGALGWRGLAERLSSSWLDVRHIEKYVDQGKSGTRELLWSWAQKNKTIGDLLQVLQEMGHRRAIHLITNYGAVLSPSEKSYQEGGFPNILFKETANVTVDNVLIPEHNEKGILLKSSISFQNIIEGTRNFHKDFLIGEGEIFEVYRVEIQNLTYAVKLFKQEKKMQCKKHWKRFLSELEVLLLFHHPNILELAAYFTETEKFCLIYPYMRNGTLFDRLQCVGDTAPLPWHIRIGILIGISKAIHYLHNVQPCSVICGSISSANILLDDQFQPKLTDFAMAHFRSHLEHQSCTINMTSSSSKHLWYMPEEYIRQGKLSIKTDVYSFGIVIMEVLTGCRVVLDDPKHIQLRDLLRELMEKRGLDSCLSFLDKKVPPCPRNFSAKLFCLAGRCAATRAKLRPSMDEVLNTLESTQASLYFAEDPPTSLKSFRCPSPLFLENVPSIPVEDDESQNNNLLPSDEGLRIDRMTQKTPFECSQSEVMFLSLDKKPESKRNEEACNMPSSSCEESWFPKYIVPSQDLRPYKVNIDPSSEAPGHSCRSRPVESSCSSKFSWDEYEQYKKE", "design": "species or system mixed lysate of K562, MV4-11, THP-1, NCI-H1155"}, "[8]": {"target": "Non-receptor tyrosine-protein kinase TYK2 ; TYK2 ; P29597 (Homo sapiens, UniProt P29597)", "design": "species or system mixed lysate of K562, MV4-11, THP-1, NCI-H1155"}, "[9]": {"target": "Glycogen synthase kinase-3 alpha ; GSK3A ; P49840 (Homo sapiens, UniProt P49840)", "design": "species or system mixed lysate of K562, MV4-11, THP-1, NCI-H1155"}, "[10]": {"target": "T3, Cyclin-dependent kinase 13 ; CDK13 ; Q14004 (Homo sapiens, UniProt Q14004)", "T3 sequence (Q14004 whole entry, one chain of several)": "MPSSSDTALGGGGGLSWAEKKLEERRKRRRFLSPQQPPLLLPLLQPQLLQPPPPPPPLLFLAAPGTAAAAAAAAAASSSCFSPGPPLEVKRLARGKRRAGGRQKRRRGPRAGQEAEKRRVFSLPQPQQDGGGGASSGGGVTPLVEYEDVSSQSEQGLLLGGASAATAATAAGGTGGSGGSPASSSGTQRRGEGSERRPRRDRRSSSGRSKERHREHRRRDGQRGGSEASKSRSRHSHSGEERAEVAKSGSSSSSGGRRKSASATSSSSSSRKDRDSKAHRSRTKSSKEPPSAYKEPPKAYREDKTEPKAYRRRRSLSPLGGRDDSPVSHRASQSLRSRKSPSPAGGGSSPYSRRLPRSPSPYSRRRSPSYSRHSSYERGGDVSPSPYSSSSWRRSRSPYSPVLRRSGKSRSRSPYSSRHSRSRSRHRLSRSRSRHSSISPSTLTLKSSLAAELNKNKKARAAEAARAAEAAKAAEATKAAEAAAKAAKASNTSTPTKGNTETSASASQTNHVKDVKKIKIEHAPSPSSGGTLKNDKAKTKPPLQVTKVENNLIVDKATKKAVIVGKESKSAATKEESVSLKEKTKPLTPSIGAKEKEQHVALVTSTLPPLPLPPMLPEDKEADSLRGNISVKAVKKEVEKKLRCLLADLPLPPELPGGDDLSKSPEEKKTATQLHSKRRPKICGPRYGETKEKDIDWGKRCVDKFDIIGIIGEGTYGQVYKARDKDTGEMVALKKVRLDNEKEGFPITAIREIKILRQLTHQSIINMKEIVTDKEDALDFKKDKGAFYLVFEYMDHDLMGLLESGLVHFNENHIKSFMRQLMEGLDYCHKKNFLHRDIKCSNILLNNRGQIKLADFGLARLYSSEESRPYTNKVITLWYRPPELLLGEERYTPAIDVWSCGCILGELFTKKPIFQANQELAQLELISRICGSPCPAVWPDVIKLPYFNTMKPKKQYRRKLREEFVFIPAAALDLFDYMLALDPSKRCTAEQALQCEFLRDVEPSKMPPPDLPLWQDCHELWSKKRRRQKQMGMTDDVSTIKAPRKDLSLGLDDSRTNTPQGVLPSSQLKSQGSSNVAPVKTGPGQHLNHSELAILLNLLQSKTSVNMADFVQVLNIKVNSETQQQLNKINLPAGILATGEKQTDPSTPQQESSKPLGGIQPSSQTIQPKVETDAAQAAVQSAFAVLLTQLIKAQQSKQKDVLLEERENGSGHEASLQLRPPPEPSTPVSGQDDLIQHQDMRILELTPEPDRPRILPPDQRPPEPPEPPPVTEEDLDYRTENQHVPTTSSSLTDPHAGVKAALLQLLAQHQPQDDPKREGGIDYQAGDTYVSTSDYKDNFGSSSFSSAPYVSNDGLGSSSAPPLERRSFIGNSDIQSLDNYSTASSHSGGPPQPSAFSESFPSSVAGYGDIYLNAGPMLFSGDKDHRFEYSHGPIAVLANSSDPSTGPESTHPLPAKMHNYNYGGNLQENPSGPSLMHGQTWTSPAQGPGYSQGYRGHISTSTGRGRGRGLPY", "design": "species or system mixed lysate of K562, MV4-11, THP-1, NCI-H1155"}, "[11]": {"target": "T1, Cyclin-dependent kinase 19 ; CDK19 ; Q9BWU1", "design": "species or system human cell line lysate"}, "[12]": {"target": "Cyclin-dependent kinase 4 ; CDK4 ; P11802 (Homo sapiens, UniProt P11802)", "sequence (P11802 whole entry, one chain of several)": "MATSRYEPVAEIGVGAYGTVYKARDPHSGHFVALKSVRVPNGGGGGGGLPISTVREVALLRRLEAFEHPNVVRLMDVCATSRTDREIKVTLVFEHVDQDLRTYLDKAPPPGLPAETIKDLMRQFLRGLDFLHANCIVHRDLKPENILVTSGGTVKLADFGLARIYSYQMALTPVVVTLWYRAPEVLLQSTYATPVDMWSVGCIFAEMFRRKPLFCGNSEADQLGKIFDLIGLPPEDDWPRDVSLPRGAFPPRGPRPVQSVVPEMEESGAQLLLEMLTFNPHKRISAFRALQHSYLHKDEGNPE", "design": "species or system human cell line lysate"}, "[13]": {"target": "T2, Interleukin-1 receptor-associated kinase 3 ; IRAK3 ; Q9Y616", "design": "species or system human cell line lysate"}, "[14]": {"target": "T3, Cyclin-dependent kinase 13 ; CDK13 ; Q14004", "design": "species or system human cell line lysate"}, "[15]": {"target": "Mast/stem cell growth factor receptor Kit ; KIT ; P10721 (Homo sapiens, UniProt P10721)", "sequence (P10721 whole entry, one chain of several)": "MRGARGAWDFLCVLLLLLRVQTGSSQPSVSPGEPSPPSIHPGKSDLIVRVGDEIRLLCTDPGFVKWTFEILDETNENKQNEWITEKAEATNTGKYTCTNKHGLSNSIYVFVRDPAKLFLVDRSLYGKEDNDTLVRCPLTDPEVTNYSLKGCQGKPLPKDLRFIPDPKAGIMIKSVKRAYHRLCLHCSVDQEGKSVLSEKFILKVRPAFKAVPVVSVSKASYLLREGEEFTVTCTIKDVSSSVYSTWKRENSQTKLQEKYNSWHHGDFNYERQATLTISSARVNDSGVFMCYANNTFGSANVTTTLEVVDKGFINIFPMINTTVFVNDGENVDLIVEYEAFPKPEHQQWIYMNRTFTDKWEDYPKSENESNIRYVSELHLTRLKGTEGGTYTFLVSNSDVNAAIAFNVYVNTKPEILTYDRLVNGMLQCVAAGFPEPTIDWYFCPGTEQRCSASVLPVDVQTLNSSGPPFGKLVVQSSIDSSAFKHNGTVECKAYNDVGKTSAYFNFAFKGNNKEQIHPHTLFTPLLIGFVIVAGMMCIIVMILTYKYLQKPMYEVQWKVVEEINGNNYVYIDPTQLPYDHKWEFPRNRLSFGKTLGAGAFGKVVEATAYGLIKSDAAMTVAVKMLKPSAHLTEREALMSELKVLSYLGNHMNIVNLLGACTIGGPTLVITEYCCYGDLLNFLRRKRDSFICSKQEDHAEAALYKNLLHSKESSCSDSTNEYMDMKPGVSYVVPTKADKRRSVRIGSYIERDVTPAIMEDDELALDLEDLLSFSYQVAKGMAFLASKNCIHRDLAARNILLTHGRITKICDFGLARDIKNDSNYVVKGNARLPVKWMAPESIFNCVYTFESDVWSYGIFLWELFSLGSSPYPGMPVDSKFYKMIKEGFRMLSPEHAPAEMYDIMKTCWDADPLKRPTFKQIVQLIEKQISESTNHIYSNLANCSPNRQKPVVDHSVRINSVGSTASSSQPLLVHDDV", "design": "species or system human cell line lysate"}, "[16]": {"target": "Calcium/calmodulin-dependent protein kinase kinase 1 ; CAMKK1 ; Q8N5S9 (Homo sapiens, UniProt Q8N5S9)", "design": "species or system human cell line lysate"}, "[17]": {"target": "Cyclin-dependent kinase 8 ; CDK8 ; P49336 (Homo sapiens, UniProt P49336)", "sequence (P49336 whole entry, one chain of several)": "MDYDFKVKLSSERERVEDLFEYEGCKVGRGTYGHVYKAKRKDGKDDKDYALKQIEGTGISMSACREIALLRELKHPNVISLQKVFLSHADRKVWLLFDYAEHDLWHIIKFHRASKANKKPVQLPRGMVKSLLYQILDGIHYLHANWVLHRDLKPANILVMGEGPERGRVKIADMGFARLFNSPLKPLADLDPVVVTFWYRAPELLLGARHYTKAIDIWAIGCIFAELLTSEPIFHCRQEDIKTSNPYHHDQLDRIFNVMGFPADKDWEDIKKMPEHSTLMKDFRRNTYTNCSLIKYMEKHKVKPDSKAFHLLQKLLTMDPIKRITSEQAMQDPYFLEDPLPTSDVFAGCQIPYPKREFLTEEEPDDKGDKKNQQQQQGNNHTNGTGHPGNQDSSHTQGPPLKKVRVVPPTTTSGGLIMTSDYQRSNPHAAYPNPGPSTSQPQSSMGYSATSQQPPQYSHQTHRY", "design": "species or system human cell line lysate"}, "[18]": {"conditions": "read-out: BAY-1143572 (10 µM) / %Intensity relative to DMSO"}, "[19]": {"conditions": "read-out: BAY-1251152 (10 µM) / %Intensity relative to DMSO"}},
  "note": "pIC50: −log10 of the molar value. Read-outs that look alike come from different tables or passages of the source.",
  "data": [
    {"smiles": "COc1cc(F)ccc1-c1ncnc(Nc2cccc(C[S@](C)(=N)=O)c2)n1", "note": "[BAY-1143572]", "values": [
      {"measurement": "remaining activity at 10 µM", "setting": "[1]; [18]", "result": 29.6, "unit": "%"},
      {"measurement": "remaining activity at 10 µM", "setting": "[2]; [18]", "result": 106, "unit": "%"},
      {"measurement": "remaining activity at 10 µM", "setting": "[3]; [18]", "result": 58.1, "unit": "%"},
      {"measurement": "remaining activity at 10 µM", "setting": "[4]; [18]", "result": 64.7, "unit": "%"},
      {"measurement": "remaining activity at 10 µM", "setting": "[5]; [18]", "result": 97.8, "unit": "%"},
      {"measurement": "remaining activity at 10 µM", "setting": "[6]; [18]", "result": 3.85, "unit": "%"},
      {"measurement": "remaining activity at 10 µM", "setting": "[7]; [18]", "result": 24, "unit": "%"},
      {"measurement": "remaining activity at 10 µM", "setting": "[8]; [18]", "result": 27.1, "unit": "%"},
      {"measurement": "remaining activity at 10 µM", "setting": "[9]; [18]", "result": 3.48, "unit": "%"},
      {"measurement": "remaining activity at 10 µM", "setting": "[10]; [18]", "result": 89.2, "unit": "%"},
      {"measurement": "pIC50", "setting": "[11]", "result": "< 5.00"},
      {"measurement": "pIC50", "setting": "[12]", "result": "< 5.00"},
      {"measurement": "pIC50", "setting": "[13]", "result": 5.53},
      {"measurement": "pIC50", "setting": "[14]", "result": "< 5.00"},
      {"measurement": "pIC50", "setting": "[15]", "result": 6.19},
      {"measurement": "pIC50", "setting": "[16]", "result": 6.42},
      {"measurement": "pIC50", "setting": "[17]", "result": "< 5.00"}
    ]},
    {"smiles": "COc1cc(F)ccc1-c1cc(Nc2cc(CS(C)(=N)=O)ccn2)ncc1F", "note": "(stereo not shown) [BAY-1251152]", "values": [
      {"measurement": "remaining activity at 10 µM", "setting": "[1]; [19]", "result": 16.9, "unit": "%"},
      {"measurement": "remaining activity at 10 µM", "setting": "[2]; [19]", "result": 26.5, "unit": "%"},
      {"measurement": "remaining activity at 10 µM", "setting": "[3]; [19]", "result": 25.7, "unit": "%"},
      {"measurement": "remaining activity at 10 µM", "setting": "[4]; [19]", "result": 37.5, "unit": "%"},
      {"measurement": "remaining activity at 10 µM", "setting": "[5]; [19]", "result": 90.5, "unit": "%"},
      {"measurement": "remaining activity at 10 µM", "setting": "[6]; [19]", "result": 2.79, "unit": "%"},
      {"measurement": "remaining activity at 10 µM", "setting": "[7]; [19]", "result": 86.2, "unit": "%"},
      {"measurement": "remaining activity at 10 µM", "setting": "[8]; [19]", "result": 89.6, "unit": "%"},
      {"measurement": "remaining activity at 10 µM", "setting": "[9]; [19]", "result": 5.28, "unit": "%"},
      {"measurement": "remaining activity at 10 µM", "setting": "[10]; [19]", "result": 58.8, "unit": "%"},
      {"measurement": "pIC50", "setting": "[11]", "result": "< 5.00"},
      {"measurement": "pIC50", "setting": "[12]", "result": "< 5.00"},
      {"measurement": "pIC50", "setting": "[13]", "result": "< 5.00"},
      {"measurement": "pIC50", "setting": "[14]", "result": "< 5.00"},
      {"measurement": "pIC50", "setting": "[15]", "result": "< 5.00"},
      {"measurement": "pIC50", "setting": "[16]", "result": 6.52},
      {"measurement": "pIC50", "setting": "[17]", "result": "< 5.00"}
    ]}
  ]
}
